Data: doi:10.1101/2024.08.25.609621 (bioRxiv, 2024)
≈ marks a conversion by molar mass, not a printed value. Where two headings read alike, the source gives them in different places.

Legend:
Microsomal stability = format: in vitro ADME, mouse; details: for microsomal CLint at 1 µM / half-life at 1 µM: pH 7.4
Description: The assay was carried out in 96-well plates at 37°C. Reaction mixtures (25 μl) contained a final concentration of 1 μM compound, 0.5 mg/ml liver microsomes protein, and 1 mM NADPH and/or 1 mM UDPGA (with alamethicin) in 100 mM potassium phosphate (pH 7.4) with 3 mM MgCl2. After 0, 15, 30, and 60 minutes, 150 μl of quench solution (100% acetonitrile with 0.1% formic acid) with internal standard was transferred to each well. Reactions containing the same components except the NADPH were prepared as the negative control. Plates were sealed, vortexed, and centrifuged at 4°C for 15 minutes at 4000 rpm.
The extent of metabolism was calculated as the disappearance of compounds, compared to the 0-min time incubation.

[1] = target: T1, human macrodomain MacroD2 (Homo sapiens, UniProt A1Z1Q3); experiment: HTRF peptide displacement assay, MacroD2; format: binding
T1 sequence (A1Z1Q3 with tags, fused parts or gaps): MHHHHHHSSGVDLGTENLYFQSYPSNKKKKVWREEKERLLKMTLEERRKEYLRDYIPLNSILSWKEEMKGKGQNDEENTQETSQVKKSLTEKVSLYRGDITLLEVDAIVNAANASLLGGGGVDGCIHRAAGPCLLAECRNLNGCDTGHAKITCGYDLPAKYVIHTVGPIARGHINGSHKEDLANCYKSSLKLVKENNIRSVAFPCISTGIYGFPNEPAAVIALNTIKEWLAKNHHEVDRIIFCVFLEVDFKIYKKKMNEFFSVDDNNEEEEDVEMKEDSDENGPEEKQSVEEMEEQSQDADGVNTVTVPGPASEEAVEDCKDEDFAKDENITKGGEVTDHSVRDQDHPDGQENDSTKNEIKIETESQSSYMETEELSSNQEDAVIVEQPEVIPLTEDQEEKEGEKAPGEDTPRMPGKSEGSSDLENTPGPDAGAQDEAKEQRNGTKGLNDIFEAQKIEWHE

Kinetic solubility = details: phosphate buffered saline, pH 7.4, aqueous buffer, kinetic from dmso stock
[2] = target: SARS-CoV-2 NSP3 macrodomain (Mac1) (Severe acute respiratory syndrome coronavirus 2, UniProt P0DTD1); experiment: biochemical; format: binding
in vitro = details: human; for Papp A→B at 1 h / Papp B→A at 1 h: Caco-2
Description: (§1) Caco-2 cell plates were obtained commercially and were maintained for 21 days at 37°C with 5% CO2. Cells were washed with Hank’s Balanced Salt Solution (HBSS) with 5 mM HEPES for 30 minutes before starting the experiment. Test compound solutions are prepared by diluting DMSO stock into HBSS buffer, resulting in a final DMSO concentration of 0.1%. Prior to the assay, cell monolayer integrity was verified by […] electrical resistance (TEER) to ensure that wells have resistance above the acceptance cut-off (1 kΩ). Transport experiments were initiated by adding test compounds to the apical (75 μl) or basal (250 μl) side. Transport plates were incubated at 37°C in a humidified incubator with 5% CO2. Samples were taken from the donor and acceptor compartments after one hour and analyzed by liquid chromatography with tandem mass spectrometry (LC/MS/MS) using an AB Sciex API 4000 instrument, coupled to a Shimadzu LC-20AD LC Pump system. Samples were separated using a Waters Atlantis T3 dC18 reverse phase HPLC column (20 mm × 2.1 mm) at a flow rate of 0.5 ml/min. The mobile phase consisted of 0.1% formic acid in acetonitrile (solvent A) and 0.1% formic acid in water (solvent B).
(§2) Apparent permeability (Papp) values were calculated using the following equation: Papp=(dQ/dt)/A/C0 where dQ/dt is the initial rate of compound transport across the cell monolayer, A is the surface area of the filter membrane, and C0 is the initial concentration of the test compound, calculated for each direction using a four-point calibration curve by LC/MS/MS.
(§3) Net flux ratio between the two directional transports was calculated by the following equation: Ratio=PappB-A/PappA-B where PappB-A and PappA-B represent the apparent permeability of compounds from the basal-to-apical and apical-to-basal side of the cellular monolayer, respectively. Recovery was calculated based on the compound concentration at the end of the experiment, compared to that at the beginning of the experiment, adjusted for volumes.

Caco-2 cells = experiment: in vitro
Description: as §1, §2, §3

human macrodomain Targ1 = target: T2, human macrodomain Targ1 (Homo sapiens, UniProt Q9Y530); experiment: HTRF peptide displacement assay, Targ1; format: binding
T2 sequence (Q9Y530 with tags, fused parts or gaps): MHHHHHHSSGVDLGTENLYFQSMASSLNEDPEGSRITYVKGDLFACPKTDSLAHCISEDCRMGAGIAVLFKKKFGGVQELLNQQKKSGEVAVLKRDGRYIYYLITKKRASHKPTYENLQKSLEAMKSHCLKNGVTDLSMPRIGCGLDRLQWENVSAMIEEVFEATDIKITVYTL

[3] = target: SARS-CoV-2 NSP3 macrodomain (Mac1), P43 crystal form (Severe acute respiratory syndrome coronavirus 2, UniProt P0DTD1); format: binding; details: for 1-BDC: PanDDA background density correction; for Total number of conformations: ligand conformations modeled in Mac1 crystal structure
[4] = crystal soak 10 mM, P43 crystals
[5] = crystal soak 10 mM, DMSO background map
[6] = mouse, microsomes, 1 μM compound, 0.5 mg/ml microsomal protein, read-out: Mouse microsome T1/2

SMILES: CC(C)[C@H](CO)Nc1ncnc2[nH]ccc12 [AVI-1504, (2R)-3-Methyl-2-({7H-pyrrolo[2,3-d]pyrimidin-4-yl}amino)butan-1-ol]
- CLint (mouse) (µl/min/mg protein), mean (Microsomal stability; mouse microsome stability): <11.6 µl/min/mg protein

SMILES: CC(c1ccccc1)C(CO)Nc1ncnc2[nH]ccc12 (stereo not shown) [AVI-3669]
- IC50 ([1]; Human MacroD2 HTRF assay, dose-response, read-out: IC50): > 1000 µM
- binding to the human macrodomain MacroD2 ([1]; in words): none
- microsomal CLint at 1 µM (Microsomal stability; liver microsomes, mouse microsome stability, read-out: CLint (mouse) (µl/min/mg protein), mean): 166 µL/min/mg
- half-life at 1 µM (Microsomal stability; mouse, microsomes): 8.3 min
- microsomal CLint at 1 µM (Microsomal stability; mouse, microsomes): 166 µL/min/mg
- solubility kinetic at […] (Kinetic solubility): 529 µM (≈ 149 µg/mL)
- Hill slope ([2]; HTRF dose-response fit, Mac1): 1.2
- Hill slope ([2]; SARS CoV-2 macrodomain HTRF assay, dose-response): 1.2
- inhibition at 200 µM ([2]; Single dose, concentration 200 μM, read-out: Average % competition): 98%
- inhibition at 200 µM ([2]; preliminary screen, compound at 200 μM, mean of 3-4 technical replicates, read-out: % competition in HTRF assay): 98%
- Papp A→B at 1 h (in vitro): 19.4 ×10⁻⁶ cm/s
- Papp B→A at 1 h (in vitro): 14.5 ×10⁻⁶ cm/s
- efflux ratio at 1 h (in vitro; Caco-2, Caco-2 ratio B-A/A-B, net flux ratio): 0.7
- efflux ratio at 1 h (in vitro; Caco-2, Ratio (B-A/A-B)): 0.75
- Recover Rate (%) (Caco-2 cells; human, Caco-2, 1 h): 93%
- IC50 (human macrodomain Targ1; Human Targ1 HTRF assay, dose-response, read-out: IC50): > 1000 µM
- binding to the human macrodomain Targ1 (human macrodomain Targ1; in words): none
- 1-BDC [3]: 0.14
- X-ray crystal structure ([3]; X-ray crystal structure determined (TRUE)): TRUE
- Pandda run, overall: Hit [3, 4]: TRUE
- Pandda run, overall: Modeled [3, 4]: TRUE
- PanDDA run, DMSO background map: 1-BDC [3, 5]: 0.14
- PanDDA run, DMSO background map: Hit [3, 5]: TRUE
- Total number of conformations [3]: 1
- 2*(1-BDC) (%) ([3]; occupancy estimate from PanDDA 1-BDC): 28%
- Binding site ([3]; site of ligand in X-ray crystal structure): Adenosine

SMILES: C[C@H]1CCCN(c2ncnc3[nH]ccc23)[C@H]1CO [AVI-3716]
- IC50 ([1]; dose-response, read-out: Human MacroD2 HTRF assay: IC50): > 1000 µM
- binding to the human macrodomain MacroD2 ([1]; in words): none
- microsomal CLint at 1 µM (Microsomal stability; liver microsomes, mouse microsomes, read-out: CLint (mouse) (µl/min/mg protein), mean): 44.4 µL/min/mg
- Mouse microsome stability: T1/2 (min), mean (Microsomal stability; mouse microsomes): 31.2 min
- microsomal CLint at 1 µM (Microsomal stability; mouse, microsomes): 44.4 µL/min/mg
- half-life at 1 µM (Microsomal stability; [6]): 31.2 min
- solubility kinetic at […] (Kinetic solubility): 523 µM (≈ 129 µg/mL)
- Papp A→B at 1 h (in vitro): 25.9 ×10⁻⁶ cm/s
- Papp B→A at 1 h (in vitro): 18.9 ×10⁻⁶ cm/s
- Recover Rate (%) (Caco-2 cells; Caco-2, compound concentration 5): 104%
- IC50 (human macrodomain Targ1; dose-response, read-out: Human Targ1 HTRF assay: IC50): > 1000 µM
- binding to the human macrodomain Targ1 (human macrodomain Targ1; in words): none

SMILES: Cc1c[nH]c2ncnc(NCC3(O)CCCCC3)c12 [AVI-3761, 1-(((5-methyl-7H-pyrrolo[2,3-d]pyrimidin-4-yl)amino)methyl)cyclohexan-1-ol]
- IC50 [1]: > 1000 µM
- binding to the human macrodomain MacroD2 [1]: none
- T1/2 (min), mean (Microsomal stability; mouse microsome stability): 7.49 min
- half-life at 1 µM (Microsomal stability; [6]): 7.49 min
- microsomal CLint at 1 µM (Microsomal stability; mouse microsomes, read-out: CLint (mouse)): 185 µL/min/mg
- Papp A→B at 1 h (in vitro): 21.5 ×10⁻⁶ cm/s
- Papp B→A at 1 h (in vitro): 11.2 ×10⁻⁶ cm/s
- Recover Rate (%) (Caco-2 cells; human, Caco-2, 1 h): 86%
- IC50 (human macrodomain Targ1): > 1000 µM
- binding to the human macrodomain Targ1 (human macrodomain Targ1): none

SMILES: OC1CCC(O)(CNc2ncnc3[nH]ccc23)CC1 (stereo not shown) [AVI-6220]
- Hill slope ([2]; HTRF dose-response fit, Mac1): 1.3
- SARS CoV-2 macrodomain HTRF assay: Hillslope ([2]; dose-response fit): 1.3
- Occupancy difference (refined_occupancy - 2*(1-BDC)) [3]: 0
- Refined ligand occupancy (%) [3]: 14%
- PanDDA run, DMSO background map: 1-BDC ([3]; DMSO background map, event 1): 0.07
- 1-BDC [3]: 0.07
- Total number of conformations [3]: 2
- 2*(1-BDC) (%) ([3]; occupancy estimate from PanDDA BDC): 14%
- X-ray crystallography: Binding site ([3]; site where the ligand is bound in the X-ray crystal structure): Adenosine
